Structures can show the parent of a compound that is named as a salt.
Key:
[1] = system: mouse grafted sarcoma S-180; assay: Activity against mouse grafted sarcoma S-180; format: in vivo, Kunming mice; conditions: for Inhibition rate (%) / Tumor weight: 6 doses; for Tumor weight: X ± SD, n = 10; for Average weight (g)-after administration / Average weight(g)-after administration: mouse, in vivo, iv; for inhibitory effect against mouse sarcoma S-180 (in words): three different concentrations (40, 20, 10 mg/kg), i.v.
Experimental: (1) Experimental animals: Kunming mice weighting 18-22 g;
(2) 100 mg/ml solutions of the 3 compounds were prepared, respectively, in water for injection (1% surface surfactant was added into the solution of Compound 6). 5-FU and camptothecine, 30 mg/kg and 1 mg/kg, respectively, were used as positive controls;
3. Route of Administration: Intravenous Injection.
(§1) The experiments were performed according to “Guideline for New Drugs (Western medicines) in Pre-clinical Stages” issued by Bureau of Drug Policy & Administration of the People's Republic of China, and the relevant methods in “Methodology of Pharmaceutical Experiments”, Xu Shuyun et al. ed. 120 male Kunming mice weighting […] were allowed to grow 3 days. No abnormality was observed. The mice were routinely inoculated in oxter with mouse sarcoma S-180, and weighted 4 hrs. after inoculation. The mice were randomly divided into 12 groups, 10 mice/group. Group 1 was given 0.3 ml of physiological saline as negative control; Group 2 was given 5-FU as positive control, 0.6 mg/mouse; Group 3 was given hydroxycamptothecine as positive control, 0.02 mg/mouse. Groups 4, 5 and 6 were injected with 10% Compound 6, 0.4 ml/mouse, 0.2 ml/mouse, and 0.1 ml/mouse, respectively. Groups 7, 8 and 9 were injected with 10% Compound 8, 0.4 ml/mouse, 0.2 ml/mouse, and 0.1 ml/mouse, respectively. Groups 10, 11, and 12 were injected with 10% Compound 20, 0.4 ml/mouse, 0.2 ml/mouse, and 0.1 ml/mouse, respectively. The tested compounds were administered on the next day after inoculation, once a day on alternate days, 6 doses totally administered. On the next day after the end dose, the mice were weighed and sacrificed. After the tumor was excised, body weight and tumor weight were recorded. The tumor inhibition rate was calculated based on the following formula: [(average tumor weight of the control groups−average tumor weight of the experimental groups)/average tumor weight of the control groups]×100%. The data was processed statistically. The above experiments were repeated three times.

[2] = system: MCF-7 human mammary adenocarcinoma; assay: In vitro anti-tumor IC50 (MTT), MCF-7; format: cell-based; conditions: Table 4
Experimental: (1) Single cell suspension was seeded into 96-well plates (the cells was diluted in the PRMI-1640 minimum medium to 3×10^4 cells/ml, […] diluted cells/well). […] The experiments were performed in quadruplicate.
(2) The medium was removed. Solutions of the anti-tumor agents (50 compounds) were prepared in a freshly prepared medium at serial concentrations. […] of the solution was added into each well. Incubation was continued for 48 hours.
(3) 20 ug of 2 mg/ml MTT was added into each well, and incubated for 4 hours.
(4) The medium was removed from the well. The microplates were swiftly turned down to throw-off the medium. […] of DMSO was added into each well, and vortexed at room temperature for 10 minutes.
(5) OD value (λ=570 nm) was measured with an Enzyme-Linked Detector.
(6) The graph of cell vitality was plotted, and IC50 was calculated.

[3] = system: mouse grafted uterine cervix cancer U14; assay: Activity against mouse grafted uterine cervix cancer U14; format: in vivo, Kunming mice; conditions: for Tumor weight: X ± SD, n = 10; for inhibitory effect against mouse grafted uterine cervix cancer U14 (in words): all the three concentrations, i.v., female mice
Experimental: as §1
The experiments were identical with the experiments for activity against mouse grafted sarcoma S-180, except the following:
(1) the tumor cell line inoculated was mouse grafted uterine cervix cancer U14;
(2) all the mice were female.

[4] = system: MDCK (dog kidney) cells; assay: Toxicity TC50 of the samples in MDCK cells (influenza screening); conditions: concentration of 50% toxicity
[5] = biological target: T1, HIV-1 integrase (HIV-1 IN) (Human immunodeficiency virus type 1 group M subtype B, UniProt P04585); assay: Screening for the activity against HIV-1 integrase; format: biochemical; conditions: initial concentration 100 μg/ml; read-out: IC50
T1 construct: a purified HIV-1 integrase was added into each well; purchased
Outline: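 Purified HIV-1 integrase with plate-bound 30-nt donor oligonucleotide and biotinylated 20-nt target oligonucleotide; samples tested at four 5-fold serial dilutions. Strand-transfer product detected by ELISA with biotin-labeled alkaline phosphatase, read as OD450.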

[6] = S-180, first experiment, 10 mg/kg i.v.
[7] = S-180, first experiment, 20 mg/kg i.v.
[8] = S-180, first experiment, 40 mg/kg i.v.
[9] = S-180, second experiment, 10 mg/kg i.v.
[10] = S-180, second experiment, 20 mg/kg i.v.
[11] = S-180, second experiment, 40 mg/kg i.v.
[12] = U14, first experiment, 10 mg/kg
[13] = U14, first experiment, 20 mg/kg
[14] = U14, first experiment, 40 mg/kg
[15] = U14, second experiment, 10 mg/kg
[16] = U14, second experiment, 20 mg/kg
[17] = U14, second experiment, 40 mg/kg
[18] = U14, third experiment, 10 mg/kg
[19] = U14, third experiment, 20 mg/kg
[20] = U14, third experiment, 40 mg/kg

CC(C)C1CC23OC1(O)C/C(=C\Nc1ccc(O)cc1)C2CCC3C (centres unmarked) [Compound 6, Curcumol p-hydroxy aniline hydrochloride]
Inhibition rate (%) [1, 6]: 56%
Tumor weight [1, 6]: 1.1 ± 0.31 g
Inhibition rate (%) [1, 7]: 68.4%
Tumor weight [1, 7]: 0.79 ± 0.21 g
Inhibition rate (%) [1, 8]: 75.2%
Tumor weight [1, 8]: 0.62 ± 0.34 g
Inhibition rate (%) [1, 9]: 57.7%
Tumor weight [1, 9]: 1.1 ± 0.31 g
Inhibition rate (%) [1, 10]: 68.8%
Tumor weight [1, 10]: 0.82 ± 0.32 g
Inhibition rate (%) [1, 11]: 72.7%
Tumor weight [1, 11]: 0.71 ± 0.44 g
Average weight (g)-after administration ([1]; 10 mg/kg): 22.3 g
Average weight(g)-after administration ([1]; 10 mg/kg): 22.3 g
Average weight (g)-after administration ([1]; 20 mg/kg): 22.9 g
Average weight(g)-after administration ([1]; 20 mg/kg): 21.9 g
Average weight (g)-after administration ([1]; 40 mg/kg): 22.0 g
Average weight(g)-after administration ([1]; 40 mg/kg): 22.0 g
inhibitory effect against mouse sarcoma S-180 (in words) [1]: good inhibitory effect
IC50 (ug/ml) against tumor cell lines, MCF ([2]; hydrochloride): 1.10 µg/mL
Inhibition rate (%) [3, 12]: 37.3%
Tumor weight [3, 12]: 2.2 ± 0.37 g
Inhibition rate (%) [3, 13]: 65.0%
Tumor weight [3, 13]: 1.23 ± 0.29 g
Inhibition rate (%) [3, 14]: 72.6%
Tumor weight [3, 14]: 0.96 ± 0.31 g
Inhibition rate (%) [3, 15]: 32.3%
Tumor weight [3, 15]: 2.3 ± 0.37 g
Inhibition rate (%) [3, 16]: 64.7%
Tumor weight [3, 16]: 1.20 ± 0.29 g
Inhibition rate (%) [3, 17]: 73.5%
Tumor weight [3, 17]: 0.90 ± 0.31 g
Inhibition rate (%) [3, 18]: 35.9%
Tumor weight [3, 18]: 2.32 ± 0.37 g
Inhibition rate (%) [3, 19]: 63.5%
Tumor weight [3, 19]: 1.32 ± 0.29 g
Inhibition rate (%) [3, 20]: 72.1%
Tumor weight [3, 20]: 1.01 ± 0.31 g
inhibitory effect against mouse grafted uterine cervix cancer U14 (in words) [3]: good inhibitory effect
Average weight (g)-after administration ([3]; mouse, in vivo, 10 mg/kg): 22.1 g
Average weight (g)-after administration ([3]; mouse, in vivo, 20 mg/kg): 21.6 g
Average weight (g)-after administration ([3]; mouse, in vivo, 40 mg/kg): 21.6 g
TC50 [4]: 192.45 µg/mL

CC(C)C1CC23OC1(O)CC(=CN1CCNCC1)C2CCC3C (centres unmarked) [Compound 8, Curcumol piperazine hydrochloride]
Inhibition rate (%) [1, 6]: 16%
Tumor weight [1, 6]: 2.1 ± 0.42 g
Inhibition rate (%) [1, 7]: 20%
Tumor weight [1, 7]: 2.0 ± 0.40 g
Inhibition rate (%) [1, 8]: 48%
Tumor weight [1, 8]: 1.3 ± 0.24 g
Inhibition rate (%) [1, 9]: 15.4%
Tumor weight [1, 9]: 2.2 ± 0.31 g
Inhibition rate (%) [1, 10]: 15.4%
Tumor weight [1, 10]: 2.2 ± 0.29 g
Inhibition rate (%) [1, 11]: 46.1%
Tumor weight [1, 11]: 1.4 ± 0.37 g
Average weight (g)-after administration ([1]; 10 mg/kg): 22.5 g
Average weight(g)-after administration ([1]; 10 mg/kg): 23.5 g
Average weight (g)-after administration ([1]; 20 mg/kg): 21.8 g
Average weight(g)-after administration ([1]; 20 mg/kg): 21.8 g
Average weight (g)-after administration ([1]; 40 mg/kg): 23.0 g
Average weight(g)-after administration ([1]; 40 mg/kg): 23.0 g
inhibitory effect against mouse sarcoma S-180 (in words) [1]: had the inhibitory effect only when the concentration reached 40 mg/kg
IC50 ([2]; Homo sapiens, MCF7, read-out: IC50 (ug/ml) against tumor cell lines, MCF): 3.28 µg/mL
Inhibition rate (%) [3, 12]: 35.6%
Tumor weight [3, 12]: 2.26 ± 0.33 g
Inhibition rate (%) [3, 13]: 54.4%
Tumor weight [3, 13]: 1.60 ± 0.39 g
Inhibition rate (%) [3, 14]: 67.2%
Tumor weight [3, 14]: 1.15 ± 0.36 g
Inhibition rate (%) [3, 15]: 38.8%
Tumor weight [3, 15]: 2.08 ± 0.33 g
Inhibition rate (%) [3, 16]: 55.6%
Tumor weight [3, 16]: 1.51 ± 0.39 g
Inhibition rate (%) [3, 17]: 64.7%
Tumor weight [3, 17]: 1.20 ± 0.36 g
Inhibition rate (%) [3, 18]: 40.1%
Tumor weight [3, 18]: 2.14 ± 0.33 g
Inhibition rate (%) [3, 19]: 54.4%
Tumor weight [3, 19]: 1.65 ± 0.39 g
Inhibition rate (%) [3, 20]: 65.5%
Tumor weight [3, 20]: 1.25 ± 0.36 g
inhibitory effect against mouse grafted uterine cervix cancer U14 (in words) [3]: good inhibitory effect
inhibition rate against mouse grafted uterine cervix cancer U14 ([3]; concentration above 40 mg/kg): above 60%
Average weight (g)-after administration ([3]; mouse, in vivo, 10 mg/kg): 21.5 g
Average weight (g)-after administration ([3]; mouse, in vivo, 20 mg/kg): 21.9 g
Average weight(g)-after administration ([3]; mouse, in vivo, 20 mg/kg): 20.9 g
Average weight (g)-after administration ([3]; mouse, in vivo, 40 mg/kg): 21.3 g
TC50 [4]: 192.45 µg/mL
inhibition at 100 µg/mL [5]: < 50%

Source: US7700584B2 (Hangzhou Minsheng Pharmaceuticals Co., Ltd., priority 2004, dated 2010)
